Like-named read-outs stand apart in the source and are kept apart here.

The target in test [1] is T1, rat α3β4 nAChR (Rattus norvegicus, UniProt P04757+P12392). The test can be described thus: Competition binding with [^125I]AT-1012 as radioligand, HEK cell membranes.
In test [2] the target is T1, rat α3β4 nAChR. The test can be described thus: Competition binding with [^3H]epibatidine as radioligand, HEK cell membranes.
Test [3] concerns the target rat α4β2 nAChR (Rattus norvegicus, UniProt P09483+P12390). Described as above.
In test [4] the target is T2, human α3β4α5 nAChR (Homo sapiens, UniProt P30926+P32297). The test is classed as binding.
For test [5], the target named is T2, human α3β4α5 nAChR. The test can be described thus: Competition binding with [^125I]AT-1012 as radioligand, HEK cell membranes.
The target of test [6] is α7 nAChR (Homo sapiens, UniProt P36544). The test can be described thus: Binding at α7 nAChR.
The mark [7] stands for this setting: radioligand [^125I]AT-1012, rat α3β4 nAChR, average ± SD.
The mark [8] stands for this setting: read-out: Binding affinity (Ki).
[9] abbreviates: radioligand [^125I]AT-1012, human α3β4α5 nAChR, average ± SD.

Consider `CN1C2CCCC1CC(Nc1ccccc1Br)C2` (stereo not drawn) [AT-1001], for which the Hill coefficient is listed as 0.94±0.04 in test [1] (setting [7]); 0.87±0.19 in test [2]; 0.97±0.11 in test [3]; 0.82±0.04 in test [4]; 0.95±0.05 in test [5] (setting [9]). In addition, the Ki in test [3] (setting [8]) amounted to 263 ± 9.3 nM.

As for `CN1[C@@H]2CCC[C@H]1CC(Nc1ccccc1I)C2` (stereo partly drawn) [AT-1012], the Hill coefficient in test [1] (setting [7]) came out at 1.03±0.01; in test [2] it was 0.77±0.09; in test [3] it was 0.88±0.02; in test [5] (setting [9]), 0.96±0.09. The Ki in test [2] (setting [8]) was 1.3 ± 0.16 nM; in test [3] (setting [8]), 142 ± 2 nM; in test [4] (read-out: Binding affinity (Ki) at human α3β4α5 nAChR) it was 1.08 ± 0.05 nM; in test [5] (read-out: Binding affinity (Ki) at human α3β4α5 nAChR, radioligand [^125I]AT-1012, average ± SD), 0.68 ± 0.06 nM. Besides, the “Selectivity versus the α7 nAChR” value in test [6] is on record as “greater than 100 fold”. Also, the “Binding selectivity for the α3β4 over α4β2 nAChR” value in test [3] was “over 100 fold”.

Take `COCC[C@H]1CC2CN3CCc4c([nH]c5ccccc45)[C@](C(=O)OC)(C2)[C@H]13` [Compound 18-MC, 18-methoxycoronaridine]: the Ki in test [1], in test [2] and in test [3] was over 10000 nM in each case. Moreover, the “Inhibition of [^125I]AT-1012 binding” value in test [1] (rat α3β4 nAChR) is listed as “do not inhibit”. In addition, in test [5], the “Competition with [^125I]AT-1012 at the human α3β4α5 nAChR” value was “do not compete”.

Take `Clc1ccc(C2CC3CCC2N3)cn1` (stereo not drawn) [Epibatidine]: the Hill coefficient in test [1] (setting [7]) is 0.89±0.01; in test [2], 1.00±0.06; in test [4], 0.98±0.02; in test [5] (setting [9]), 0.88±0.02.

As for `CNC1(C)C2CCC(C2)C1(C)C` (stereo not drawn) [Mecamylamine], the “Inhibition of [^125I]AT-1012 binding” value in test [1] (rat α3β4 nAChR) is on record as “do not inhibit”. In addition, the Ki in test [3] is over 10000 nM. In test [5], the “Competition with [^125I]AT-1012 at the human α3β4α5 nAChR” value was “do not compete”.

For the compound `CN1CCC[C@H]1c1cccnc1` [Nicotine], the Hill coefficient in test [1] is recorded as 467±48 (0.68±0.02); in test [2] (radioligand [^3H]epibatidine, rat α3β4 nAChR, average ± SD) it was 1.08±0.12; in test [3] (radioligand [^3H]epibatidine, rat α4β2 nAChR, average ± SD) it was 0.95±0.07; in test [4] (radioligand [^3H]epibatidine, human α3β4α5 nAChR, average ± SD), 0.91±0.04; in test [5], 1305±219 (0.75±0.05).

A word on the Hill coefficient: it is the slope factor of the fitted curve. For orientation: Ki means the dissociation constant of the complex between target and ligand, obtained from inhibition or displacement.

The values above are taken from paper PMC3866371 (Neuropharmacology, 2013).
